Where a name gives a salt, the structure may show the parent alone.
Assay: Pharmacokinetics following oral (PO) administration to male beagle dogs
Type: in vivo
Settings: single 30 mg/kg PO (free base equivalent)
Procedure: Male beagle dogs (3 in each treatment group) were administered orally 30 mg/kg of Compound (I) free base or mesylate salt of Compound (I) in a dose equivalent to 30 mg/kg of free base. The free base and the mesylate salt were suspended/dissolved in an appropriate volume of vehicle solution containing 0.5% hydroxypropyl methylcellulose (w/v) with 0.2% Tween 80 (v/v) in deionized water. The PO doses were administered into the stomach via syringe and gavage tube followed by a 5 mL water flush. Dose volumes were adjusted for the weight of the animal on the morning of dose administration. Blood samples were collected at 0, 0.5, 1, 2, 4, 6, 8, 10, 12, and 24 h postdose from an accessible vein with preference to the jugular vein. Blood samples were kept on ice until processing. All blood samples were centrifuged within 1 h of collection at 3200 RPM for 10 min at 5° C. Plasma samples were directly transferred into cluster tubes and stored at −20°±5° C. until shipment. […] Animals were fasted on the evening prior to dosing with food returned at 4 h postdose.

appearance of animals at dose administration and blood collection time points | in vivo exposure (plasma concentration, FIG. 7) (0-24 h) | SMILES
appeared normal | – | C=CC(=O)Nc1ccc(F)c(Nc2nc(Nc3cnn(C)c3)ncc2-c2ccc(C(F)(F)F)cc2)c1 [Compound (I) free base, N-(4-fluoro-3-((2-((1-methyl-1H-pyrazol-4-yl)amino)-5-(4-(trifluoromethyl)phenyl)pyrimidin-4-yl)amino)phenyl)acrylamide]
– | higher in vivo exposure | C=CC(=O)Nc1ccc(F)c(Nc2nc(Nc3cnn(C)c3)ncc2-c2ccc(C(F)(F)F)cc2)c1 [mesylate salt of Compound (I)]

Source: US20250282761A1, “SALT AND CRYSTAL FORMS OF AN EPIDERMAL GROWTH FACTOR RECEPTOR INHIBITOR” (Blueprint Medicines Corporation, priority 2022, published 2025)
